According to patent US5624923A, “Tricyclic diazepine vasopressin antagonists and oxytocin antagonists” (priority 1995, dated 1997):

What was measured:
[1] = target: T1, Rat Kidney Medullary V2 Receptors (Rattus norvegicus, UniProt Q00788); assay: Binding Assay to Rat Kidney Medullary V2 Receptors; settings: rat kidney medulla membranes; read-out: V2 IC50
T1 construct: Medullary tissues from rat kidneys are dissected out; from tissue; host or cells: rat kidney medulla membranes
Method: Binding Assay to Rat Kidney Medullary V2 Receptors
Medullary tissues from rat kidneys are dissected out, cut into small pieces and soaked in a […] sodium chloride solution containing 1.0 mM EDTA with many changes of the liquid phase, until the solution is clear of blood. The tissue is homogenized in a 0.25M sucrose solution containing 1.0 mM EDTA and 0.1 mM PMSF using a Potter-Elvehjem homogenizer with a teflon pestle. The homogenate is filtered through several layers (4 layers) of cheese cloth. The filtrate is rehomogenized using a dounce homogenizer, with a tight fitting pestle. The final homogenate is centrifuged at 1500× g for 15 min. The nuclear pellet is discarded and the supernatant fluid recentrifuged at 40,000× g for 30 min. The resulting pellet formed contains a dark inner part with the exterior., slightly pink. The pink outer part is suspended in a small amount of 50.0 mM Tris. HCl buffer, pH 7.4. The protein content is determined by the Lowry's method (Lowry et al., J. Biol. Chem., 1953). The membrane suspension is stored at -70° C. in 50.0 mM Tris HCl, containing 0.2% inactivated BSA and 0.1 mM PMSF in aliquots of 1.0 ml containing 10.0 mg protein per ml of suspension until use in subsequent binding experiments.
(§1) The plates are left undisturbed on the bench top for 120 min to reach equilibrium. Non-specific binding is assessed in the presence of 1.0 μM of unlabeled ligand, added in 20 μl volume. For test compounds, these are solubilized in 50% dimethylsulfoxide (DMSO) and added in 20.0 μl volume to a final incubation volume of 200 μl. Upon completion of binding, the content of each well is filtered off, using a Brandel® cell Harvester (Gaithersburg, Md.). The radioactivity trapped on the filter disk by the ligand-receptor complex is assessed by liquid scintillation counting in a Packard LS Counter, with an efficiency of 65% for tritium. The data are analyzed for IC50 values by the LUNDON-2 program for competition (LUNDON SOFTWARE, Ohio).

Rat Hepatic V1 Receptors = target: T2, Rat Hepatic V1 Receptors (Rattus norvegicus, UniProt P30560); assay: Binding Assay to Rat Hepatic V1 Receptors; settings: rat liver membranes; read-out: V1 IC50
T2 construct: Rat liver plasma membranes expressing the vasopressin V1 receptor subtypes; from tissue; host or cells: rat liver plasma membranes
T2 sequence (P30560 whole entry): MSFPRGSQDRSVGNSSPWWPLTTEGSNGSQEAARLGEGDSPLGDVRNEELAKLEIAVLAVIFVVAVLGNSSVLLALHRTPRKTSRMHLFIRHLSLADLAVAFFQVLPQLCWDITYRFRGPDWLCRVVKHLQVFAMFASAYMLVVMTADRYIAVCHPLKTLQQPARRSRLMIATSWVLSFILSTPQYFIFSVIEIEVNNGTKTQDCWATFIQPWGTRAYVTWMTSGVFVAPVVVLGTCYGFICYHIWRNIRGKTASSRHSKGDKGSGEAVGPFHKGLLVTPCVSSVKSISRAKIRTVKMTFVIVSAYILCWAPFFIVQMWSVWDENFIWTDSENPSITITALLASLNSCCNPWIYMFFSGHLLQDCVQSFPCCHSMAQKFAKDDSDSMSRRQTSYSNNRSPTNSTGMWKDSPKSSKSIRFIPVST
Method: Binding Assay to Rat Hepatic V1 Receptors
Rat liver plasma membranes expressing the vasopressin V1 receptor subtypes are isolated by sucrose density gradient according to the method described by Lesko et al., (1973). These membranes are quickly suspended in 50.0 mM Tris.HCl buffer, pH 7.4, containing 0.2% bovine serum albumin (BSA) and 0.1 mM phenylmethylsulfonylfluoride (PMSF) and kept frozen at -70° C. until used in subsequent binding experiments. For binding experiments, the following is added to the wells of a ninety-six well format microtiter plate: 100 μl of 100.0 mM Tris.HCl buffer containing 10.0 mM MgCl2, 0.2% heat inactivated BSA and a mixture of protease inhibitors: leupeptin, 1.0 mg %; aprotinin, 1.0 mg %; 1,10-phenanthroiine,2.0 mg %; trypsin inhibitor, 10.0 mg % and 0.1 mM PMSF, 20.0 μl of [phenylalanyl-3,4,5, -^3 H] vasopressin (S.A. 45.1 Ci/mmole) at 0.8 nM, and the reaction initiated by the addition of 80 μl of tissue membranes containing 20 μg of tissue protein. The plates are kept undisturbed on the bench top at room temperature for 120 min. to reach equilibrium. Non-specific samples are assayed in the presence of 0.1 μM of the unlabeled antagonist phenylalanylvasopressin, added in 20.0 μl volume.
as §1, with “For” for “The plates are left undisturbed on the bench top for 120 min to reach equilibrium. Non-specific binding is assessed in the presence of 1.0 μM of unlabeled ligand, added in 20 μl volume. For”, “μl .” for “μl.”

Vasopressin V1 = Vasopressin V1 Antagonist Activity in Conscious Rats (vasopressin vasopressor response); assay type: in vivo, rat; design: Average Change: unit not given here; settings: SHR
How it was run: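 Conscious rats are restrained supine, and under local 2% procaine a PE 10/20 cannula is passed through the ventral caudal tail artery into the lower abdominal aorta. The caudal vein is cannulated for intravenous dosing. Blood pressure is recorded with a Statham P23Db transducer, and vasopressin injections are repeated after compound dosing. Percent antagonism is calculated against the pre-drug vasopressor response taken as 100%.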

[2] = 10 mg/kg i.v., VAS 0.01 i.u./kg, 30 min
[3] = 10 mg/kg i.v., VAS 0.01 i.u./kg, 60 min
[4] = 10 mg/kg i.v., VAS 0.01 i.u./kg, 90 min
[5] = 10 mg/kg i.v., VAS 0.01 i.u./kg, 120 min
[6] = 10 mg/kg i.v., VAS 0.01 i.u./kg, 180 min
[7] = 10 mg/kg i.v., VAS 0.01 i.u./kg, 240 min
[8] = 10 mg/kg i.v., VAS 0.01 i.u./kg, 300 min
[9] = 10 mg/kg i.v., VAS 0.02 i.u./kg, 30 min
[10] = 10 mg/kg i.v., VAS 0.02 i.u./kg, 60 min
[11] = 10 mg/kg i.v., VAS 0.02 i.u./kg, 90 min
[12] = 10 mg/kg i.v., VAS 0.02 i.u./kg, 120 min
[13] = 10 mg/kg i.v., VAS 0.02 i.u./kg, 180 min
[14] = 10 mg/kg i.v., VAS 0.02 i.u./kg, 240 min
[15] = 10 mg/kg i.v., VAS 0.02 i.u./kg, 300 min
[16] = 20 mg/kg i.v., VAS 0.01 i.u./kg, 60 min
[17] = 20 mg/kg i.v., VAS 0.01 i.u./kg, 90 min
[18] = 20 mg/kg i.v., VAS 0.01 i.u./kg, 120 min
[19] = 20 mg/kg i.v., VAS 0.01 i.u./kg, 180 min
[20] = 20 mg/kg i.v., VAS 0.01 i.u./kg, 240 min
[21] = 20 mg/kg i.v., VAS 0.01 i.u./kg, 300 min
[22] = 20 mg/kg i.v., VAS 0.02 i.u./kg, 60 min
[23] = 20 mg/kg i.v., VAS 0.02 i.u./kg, 90 min
[24] = 20 mg/kg i.v., VAS 0.02 i.u./kg, 120 min
[25] = 20 mg/kg i.v., VAS 0.02 i.u./kg, 180 min
[26] = 20 mg/kg i.v., VAS 0.02 i.u./kg, 240 min
[27] = 20 mg/kg i.v., VAS 0.02 i.u./kg, 300 min

T1 sequence (Q00788 whole entry): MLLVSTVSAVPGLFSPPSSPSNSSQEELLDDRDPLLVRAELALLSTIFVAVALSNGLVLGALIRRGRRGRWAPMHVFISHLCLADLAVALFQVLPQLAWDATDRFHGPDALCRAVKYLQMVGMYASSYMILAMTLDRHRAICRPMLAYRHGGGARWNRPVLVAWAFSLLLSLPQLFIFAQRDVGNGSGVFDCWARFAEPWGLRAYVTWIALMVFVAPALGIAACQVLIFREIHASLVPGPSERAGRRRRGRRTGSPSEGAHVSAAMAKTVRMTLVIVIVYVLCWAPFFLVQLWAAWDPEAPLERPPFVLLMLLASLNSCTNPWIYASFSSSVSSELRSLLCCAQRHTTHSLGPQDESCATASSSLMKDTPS

With `COc1cc(Cl)ccc1C(=O)Nc1ccc(C(=O)N2Cc3cccn3Cc3ccccc32)cc1` [Example 89, N-[4-(5H-Pyrrolo[2,1-c][1,4]benzodiazepin-10(11H)ylcarbonyl)phenyl]-4-chloro-2-methoxybenzamide] the IC50 [1] was 8 nM, the IC50 (Rat Hepatic V1 Receptors) was 23 nM and the “% Inhibition” value (Vasopressin V1; [2]) was 88%. The “Average Change” value (Vasopressin V1; [2]) was 5, the “% Inhibition” value (Vasopressin V1; [3]) was 81% and the “Average Change” value (Vasopressin V1; [3]) was 7.5. For the same compound, the “% Inhibition” value (Vasopressin V1; [4]) was 81%, the “Average Change” value (Vasopressin V1; [4]) was 7.5 and the “% Inhibition” value (Vasopressin V1; [5]) was 63%. The “Average Change” value (Vasopressin V1; [5]) was 15, the “% Inhibition” value (Vasopressin V1; [6]) was 38% and the “Average Change” value (Vasopressin V1; [6]) was 25. The “% Inhibition” value (Vasopressin V1; [7]) was 38%, the “Average Change” value (Vasopressin V1; [7]) was 25 and the “% Inhibition” value (Vasopressin V1; [8]) was 31%. The “Average Change” value (Vasopressin V1; [8]) was 27.5, the “% Inhibition” value (Vasopressin V1; [9]) was 92% and the “Average Change” value (Vasopressin V1; [9]) was 5. The “% Inhibition” value (Vasopressin V1; [10]) was 84%, the “Average Change” value (Vasopressin V1; [10]) was 10 and the “% Inhibition” value (Vasopressin V1; [11]) was 80%. The “Average Change” value (Vasopressin V1; [11]) was 12.5, the “% Inhibition” value (Vasopressin V1; [12]) was 56% and the “Average Change” value (Vasopressin V1; [12]) was 27.5. For the same compound, the “% Inhibition” value (Vasopressin V1; [13]) was 48%, the “Average Change” value (Vasopressin V1; [13]) was 32.5 and the “% Inhibition” value (Vasopressin V1; [14]) was 44%. The “Average Change” value (Vasopressin V1; [14]) was 35, the “% Inhibition” value (Vasopressin V1; [15]) was 48% and the “Average Change” value (Vasopressin V1; [15]) was 32.5.
In the case of `Cc1ccccc1C(=O)N(C)c1ccc(C(=O)N2Cc3cccn3Cc3ccccc32)cc1` [Example 384, N-[4-(5H-Pyrrolo[2,1-c][1,4]benzodiazepin-10(11H)-ylcarbonyl)phenyl]-N-methyl-2-methylbenzamide], the IC50 [1] is reported as 59 nM, the IC50 (Rat Hepatic V1 Receptors) is reported as 188 nM and the “% Inhibition” value (Vasopressin V1; [2]) is reported as 62%. For the same compound, the “Average Change” value (Vasopressin V1; [2]) was 9, the “% Inhibition” value (Vasopressin V1; [3]) was 62% and the “Average Change” value (Vasopressin V1; [3]) was 9. The “% Inhibition” value (Vasopressin V1; [4]) was 49%, the “Average Change” value (Vasopressin V1; [4]) was 12 and the “% Inhibition” value (Vasopressin V1; [5]) was 55%. For the same compound, the “Average Change” value (Vasopressin V1; [5]) was 10.5, the “% Inhibition” value (Vasopressin V1; [6]) was 53% and the “Average Change” value (Vasopressin V1; [6]) was 11. The “% Inhibition” value (Vasopressin V1; [7]) was 53%, the “Average Change” value (Vasopressin V1; [7]) was 11 and the “% Inhibition” value (Vasopressin V1; [8]) was 49%. For the same compound, the “Average Change” value (Vasopressin V1; [8]) was 12, the “% Inhibition” value (Vasopressin V1; [9]) was 61% and the “Average Change” value (Vasopressin V1; [9]) was 14.5. For the same compound, the “% Inhibition” value (Vasopressin V1; [10]) was 72%, the “Average Change” value (Vasopressin V1; [10]) was 10.5 and the “% Inhibition” value (Vasopressin V1; [11]) was 58%. The “Average Change” value (Vasopressin V1; [11]) was 15.5, the “% Inhibition” value (Vasopressin V1; [12]) was 69% and the “Average Change” value (Vasopressin V1; [12]) was 11.5. The “% Inhibition” value (Vasopressin V1; [13]) was 64%, the “Average Change” value (Vasopressin V1; [13]) was 13.5 and the “% Inhibition” value (Vasopressin V1; [14]) was 59%. The “Average Change” value (Vasopressin V1; [14]) was 15, the “% Inhibition” value (Vasopressin V1; [15]) was 54% and the “Average Change” value (Vasopressin V1; [15]) was 17.
In the case of `O=C(Nc1ccc(C(=O)N2Cc3cccn3Cc3ccccc32)cc1)c1ccc2[nH]ccc2c1` [Example 117, N-[4-(5H-pyrrolo[2,1-c][1,4]benzodiazepin-10(11H)-ylcarbonyl)phenyl]-1H-indole-5-carboxamide], the IC50 [1] is reported as 377 nM, the IC50 (Rat Hepatic V1 Receptors) is reported as 2770 nM and the “% Inhibition” value (Vasopressin V1; [2]) is reported as 1%. For the same compound, the “Average Change” value (Vasopressin V1; [2]) was 36, the “% Inhibition” value (Vasopressin V1; [9]) was -12% and the “Average Change” value (Vasopressin V1; [9]) was 63. For the same compound, the “% Inhibition” value (Vasopressin V1; [16]) was 1%, the “Average Change” value (Vasopressin V1; [16]) was 36 and the “% Inhibition” value (Vasopressin V1; [17]) was 38%. The “Average Change” value (Vasopressin V1; [17]) was 22.5, the “% Inhibition” value (Vasopressin V1; [18]) was 37% and the “Average Change” value (Vasopressin V1; [18]) was 23. The “% Inhibition” value (Vasopressin V1; [19]) was 27%, the “Average Change” value (Vasopressin V1; [19]) was 26.5 and the “% Inhibition” value (Vasopressin V1; [20]) was 32%. For the same compound, the “Average Change” value (Vasopressin V1; [20]) was 25, the “% Inhibition” value (Vasopressin V1; [21]) was 29% and the “Average Change” value (Vasopressin V1; [21]) was 26. For the same compound, the “% Inhibition” value (Vasopressin V1; [22]) was 29%, the “Average Change” value (Vasopressin V1; [22]) was 40 and the “% Inhibition” value (Vasopressin V1; [23]) was 19%. For the same compound, the “Average Change” value (Vasopressin V1; [23]) was 46, the “% Inhibition” value (Vasopressin V1; [24]) was 33% and the “Average Change” value (Vasopressin V1; [24]) was 38. For the same compound, the “% Inhibition” value (Vasopressin V1; [25]) was 19%, the “Average Change” value (Vasopressin V1; [25]) was 46 and the “% Inhibition” value (Vasopressin V1; [26]) was 28%. The “Average Change” value (Vasopressin V1; [26]) was 40.5, the “% Inhibition” value (Vasopressin V1; [27]) was 25% and the “Average Change” value (Vasopressin V1; [27]) was 42.5.
